Values joined by “and” are separate entries in the source; they are usually repeats but may differ in a detail not shown here. Equal entries are not always repeated. Inconclusive results and toxic doses are left out. No stated cut-off is given here; in the data, active means T/C of 150% or more; inactive means T/C below 125%.
System: L1210 leukemia ip in BDF1 mice, survival T/C
Assay: NCI In Vivo Anticancer Drug Screen. Data for tumor model L1210 Leukemia (intraperitoneal) in B6D2F1 (BDF1) mice
Conditions: endpoint: mean survival time, higher = longer survival
Method in brief: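 Mice bearing the transplanted tumor received compound or vehicle. Survival of the treated group was divided by that of the vehicle-treated control group to give the ratio.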

[1] = dose: 50.0 mg/kg/injection, schedule: Q01DX009 (ip), vehicle: Klucel (hydroxypropylcellulose) (HPC)
[2] = dose: 100.0 mg/kg/injection, schedule: Q01DX001 (ip), vehicle: saline
[3] = dose: 100.0 mg/kg/injection, schedule: Q04DX003 (ip), vehicle: saline
[4] = dose: 200.0 mg/kg/injection, schedule: Q01DX001 (ip), vehicle: saline
[5] = dose: 200.0 mg/kg/injection, schedule: Q04DX003 (ip), vehicle: saline
[6] = dose: 400.0 mg/kg/injection, schedule: Q01DX001 (ip), vehicle: saline
[7] = dose: 400.0 mg/kg/injection, schedule: Q04DX003 (ip), vehicle: saline
[8] = dose: 100.0 mg/kg/injection, schedule: Q01DX009 (ip), vehicle: Klucel (hydroxypropylcellulose) (HPC)
[9] = dose: 100.0 mg/kg/injection, schedule: Q01DX009 (ip), vehicle: saline with Tween-80
[10] = dose: 200.0 mg/kg/injection, schedule: Q01DX009 (ip), vehicle: saline with Tween-80

Measured: T/C

C/C(=N/N(C)C)c1ccc(Br)cc1
inactive: dose: 6.25 mg/kg/injection, schedule: Q01DX009 (ip), vehicle: saline 100 % of control | dose: 12.5 mg/kg/injection, schedule: Q01DX009 (ip), vehicle: saline 94 % of control | dose: 25.0 mg/kg/injection, schedule: Q01DX009 (ip), vehicle: saline 92 % of control | [1] 108 % of control

COc1ccc(C=Nc2ccc(O)cc2)cc1
inactive: [2] 102 % of control | [3] 101 % of control | [4] 100 % of control | [5] 108 % of control | [6] 103 % of control | [7] 101 % of control

COc1ccc(C(=O)N/N=C/c2c(Cl)cccc2Cl)cc1
inactive: dose: 25.0 mg/kg/injection, schedule: Q01DX009 (ip), vehicle: Klucel (hydroxypropylcellulose) (HPC) 92 % of control | [1] 90 % of control | [8] 93 % of control and 104 % of control

CC1=CC(=O)C(C(O)(C(F)(F)Cl)C(F)(F)Cl)C(C)(C)C1 (stereo not given) (tested in a mixture with another compound)
inactive: [9] 98 % of control | [3] 93 % of control | [10] 102 % of control | [5] 98 % of control | [7] 104 % of control

N=C(N)CNC(=O)c1ccccc1C(=O)O
inactive: dose: 19.0 mg/kg/injection, schedule: Q01DX009 (ip), vehicle: saline 100 % of control | dose: 38.0 mg/kg/injection, schedule: Q01DX009 (ip), vehicle: saline 92 % of control | dose: 75.0 mg/kg/injection, schedule: Q01DX001 (ip), vehicle: saline 103 % of control | dose: 75.0 mg/kg/injection, schedule: Q01DX009 (ip), vehicle: saline 96 % of control | dose: 150.0 mg/kg/injection, schedule: Q01DX001 (ip), vehicle: saline 107 % of control | dose: 150.0 mg/kg/injection, schedule: Q01DX009 (ip), vehicle: saline 100 % of control | dose: 300.0 mg/kg/injection, schedule: Q01DX001 (ip), vehicle: saline 92 % of control

CS(=O)(=O)OCCN1C(=O)NC(c2ccccc2)(c2ccccc2)C1=O
inactive: [2] 94 % of control | dose: 100.0 mg/kg/injection, schedule: Q01DX009 (ip), vehicle: saline 97 % of control | [3] 107 % of control | [4] 94 % of control | dose: 200.0 mg/kg/injection, schedule: Q01DX009 (ip), vehicle: saline 96 % of control | [5] 93 % of control | [6] 100 % of control | dose: 400.0 mg/kg/injection, schedule: Q01DX009 (ip), vehicle: saline 97 % of control | [7] 101 % of control

CC1C(O)C(O)C(C(=O)O)ON1C(=O)c1ccccc1 (stereo not given)
inactive: dose: 100.0 mg/kg/injection, schedule: Q04DX002 (ip), vehicle: saline 100 % of control | dose: 200.0 mg/kg/injection, schedule: Q04DX002 (ip), vehicle: saline 100 % of control | dose: 400.0 mg/kg/injection, schedule: Q04DX002 (ip), vehicle: saline 110 % of control

CSc1ncnc2c1nnn2C1OC(COC(=O)c2ccccc2)C(OC(=O)c2ccccc2)C1OC(=O)c1ccccc1 (stereo not given)
inactive: dose: 50.0 mg/kg/injection, schedule: Q01DX009 (ip), vehicle: gum acacia 93 % of control | dose: 100.0 mg/kg/injection, schedule: Q01DX001 (ip), vehicle: gum acacia 92 % of control | dose: 100.0 mg/kg/injection, schedule: Q01DX009 (ip), vehicle: gum acacia 89 % of control | dose: 200.0 mg/kg/injection, schedule: Q01DX001 (ip), vehicle: gum acacia 87 % of control

O=C(Nc1cccc(Br)c1)c1ccc([N+](=O)[O-])s1
inactive: dose: 50.0 mg/kg/injection, schedule: Q01DX005 (ip), vehicle: water 89 % of control | dose: 100.0 mg/kg/injection, schedule: Q01DX005 (ip), vehicle: water 89 % of control | dose: 200.0 mg/kg/injection, schedule: Q01DX005 (ip), vehicle: water 89 % of control | dose: 400.0 mg/kg/injection, schedule: Q01DX005 (ip), vehicle: water 87 % of control

CCCCSCC(N)C(=O)O (stereo not given)
inactive: [8] 96 % of control | dose: 100.0 mg/kg/injection, schedule: Q04DX003 (ip), vehicle: Klucel (hydroxypropylcellulose) (HPC) 92 % of control | dose: 200.0 mg/kg/injection, schedule: Q01DX009 (ip), vehicle: Klucel (hydroxypropylcellulose) (HPC) 96 % of control | dose: 200.0 mg/kg/injection, schedule: Q04DX003 (ip), vehicle: Klucel (hydroxypropylcellulose) (HPC) 94 % of control | dose: 400.0 mg/kg/injection, schedule: Q01DX009 (ip), vehicle: Klucel (hydroxypropylcellulose) (HPC) 98 % of control | dose: 400.0 mg/kg/injection, schedule: Q04DX003 (ip), vehicle: Klucel (hydroxypropylcellulose) (HPC) 103 % of control

O=C(C(Cl)Cl)C(Cl)Cl
inactive: dose: 10.0 mg/kg/injection, schedule: Q01DX001 (ip), vehicle: carboxymethylcellulose (CMC) 106 % of control

O=C(Nc1ccccc1)c1ccccc1C(O)(c1ccccc1)c1ccc(Cl)cc1 (stereo not given)
inactive: [9] 92 % of control | [10] 90 % of control | dose: 400.0 mg/kg/injection, schedule: Q01DX009 (ip), vehicle: saline with Tween-80 93 % of control

COc1nncc(-c2cnnc(OC)n2)n1
inactive: dose: 12.5 mg/kg/injection, schedule: Q04DX002 (ip), vehicle: Klucel (hydroxypropylcellulose) (HPC) 112 % of control | dose: 25.0 mg/kg/injection, schedule: Q04DX002 (ip), vehicle: Klucel (hydroxypropylcellulose) (HPC) 105 % of control | dose: 50.0 mg/kg/injection, schedule: Q04DX002 (ip), vehicle: Klucel (hydroxypropylcellulose) (HPC) 109 % of control

N#Cc1ncn(C2OC(CO)C(O)C2O)c1N (stereo not given)
inactive: dose: 100.0 mg/kg/injection, schedule: Q01DX005 (ip), vehicle: saline 103 % of control | dose: 200.0 mg/kg/injection, schedule: Q01DX005 (ip), vehicle: saline 96 % of control

CN(C)Cc1cc(C(C)(C)C)ccc1O
inactive: [3] 95 % of control | [5] 91 % of control

O=Cc1cccc(CC(O)(C(F)(F)F)C(F)(F)F)n1
inactive: dose: 25.0 mg/kg/injection, schedule: Q01DX009 (ip), vehicle: saline with Tween-80 101 % of control | dose: 50.0 mg/kg/injection, schedule: Q01DX009 (ip), vehicle: saline with Tween-80 101 % of control | dose: 50.0 mg/kg/injection, schedule: Q04DX003 (ip), vehicle: saline with Tween-80 91 % of control | dose: 100.0 mg/kg/injection, schedule: Q04DX003 (ip), vehicle: saline with Tween-80 91 % of control | dose: 200.0 mg/kg/injection, schedule: Q04DX003 (ip), vehicle: saline with Tween-80 104 % of control

CCCOC(=O)c1ccc(NCC(C)(C)N(C)C)cc1
inactive: [3] 100 % of control | [5] 97 % of control | [7] 97 % of control
